The results in this text go back to paper PMC12548168, “Pitavastatin is a novel Mcl-1 inhibitor that overcomes paclitaxel resistance in triple-negative breast cancer” (Experimental Hematology & Oncology, 2025).

In assay [1] the target is T1, Mcl-1 (myeloid cell leukemia 1) (Homo sapiens, UniProt Q07820).
T1 construct: gene MCL1
In words: surface plasmon resonance (SPR). The format is binding.

The target of assay [2] is T1, Mcl-1 (myeloid cell leukemia 1). In words: surface plasmon resonance (SPR), reference Mcl-1 inhibitor (Supplementary Fig. S2). It is filed as binding. A general note: Surface plasmon resonance follows binding to a sensor surface in real time, without labels.

T1 sequence (Q07820 whole entry): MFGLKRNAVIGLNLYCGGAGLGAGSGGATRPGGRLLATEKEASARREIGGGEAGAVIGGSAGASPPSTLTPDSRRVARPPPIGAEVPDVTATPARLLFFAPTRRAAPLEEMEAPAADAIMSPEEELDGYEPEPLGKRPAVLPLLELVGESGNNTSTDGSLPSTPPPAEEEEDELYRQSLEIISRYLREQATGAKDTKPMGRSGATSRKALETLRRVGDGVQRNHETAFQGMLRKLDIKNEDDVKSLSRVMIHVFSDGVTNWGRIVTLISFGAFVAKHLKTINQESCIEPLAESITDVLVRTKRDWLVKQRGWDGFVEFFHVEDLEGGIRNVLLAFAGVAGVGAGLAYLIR

The term Kd denotes a measure of binding affinity in units of concentration. The low end stands for tighter binding, the high end for weaker binding. With `O=C(O)C[C@H](O)C[C@H](O)/C=C/c1c(C2CC2)nc2ccccc2c1-c1ccc(F)cc1` [PITA, Pitavastatin], binding in assay [1] was characterised by a dissociation constant (Kd) of 3.91 µM.

With `Cc1cc2c(C(C)C)c(O)c(O)c(C=O)c2c(O)c1-c1c(C)cc2c(C(C)C)c(O)c(O)c(C=O)c2c1O` [AT101], binding in assay [2] was characterised by a dissociation constant (Kd) of 9.48 µM.
